Measurements taken from PubChem BioAssay AID248 (DTP/NCI, 2004).
Values joined by “and” are separate entries in the source; they are usually repeats but may differ in a detail not shown here. Equal entries are not always repeated. Toxic doses and inconclusive results are not listed.

Test system: L1210 leukemia ip in BDF1 mice, survival T/C
Test: NCI In Vivo Anticancer Drug Screen. Data for tumor model L1210 Leukemia (intraperitoneal) in B6D2F1 (BDF1) mice
Settings: endpoint: mean survival time, higher = longer survival
Outline: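 Mice bearing the transplanted tumor received compound or vehicle. Survival of the treated group was divided by that of the vehicle-treated control group to give the ratio.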

[1] = dose: 100.0 mg/kg/injection, schedule: Q01DX001 (ip), vehicle: carboxymethylcellulose (CMC)
[2] = dose: 200.0 mg/kg/injection, schedule: Q01DX001 (ip), vehicle: carboxymethylcellulose (CMC)
[3] = dose: 400.0 mg/kg/injection, schedule: Q01DX001 (ip), vehicle: carboxymethylcellulose (CMC)
[4] = dose: 100.0 mg/kg/injection, schedule: Q01DX001 (ip), vehicle: saline
[5] = dose: 200.0 mg/kg/injection, schedule: Q01DX001 (ip), vehicle: saline
[6] = dose: 400.0 mg/kg/injection, schedule: Q01DX001 (ip), vehicle: saline
[7] = dose: 100.0 mg/kg/injection, schedule: Q01DX009 (ip), vehicle: saline with Tween-80
[8] = dose: 200.0 mg/kg/injection, schedule: Q01DX009 (ip), vehicle: saline with Tween-80
[9] = dose: 400.0 mg/kg/injection, schedule: Q01DX009 (ip), vehicle: saline with Tween-80
[10] = dose: 100.0 mg/kg/injection, schedule: Q01DX009 (ip), vehicle: Klucel (hydroxypropylcellulose) (HPC)
[11] = dose: 200.0 mg/kg/injection, schedule: Q01DX009 (ip), vehicle: Klucel (hydroxypropylcellulose) (HPC)
[12] = dose: 400.0 mg/kg/injection, schedule: Q01DX009 (ip), vehicle: Klucel (hydroxypropylcellulose) (HPC)
[13] = dose: 100.0 mg/kg/injection, schedule: Q04DX003 (ip), vehicle: saline with Tween-80
[14] = dose: 200.0 mg/kg/injection, schedule: Q04DX003 (ip), vehicle: saline with Tween-80
[15] = dose: 400.0 mg/kg/injection, schedule: Q04DX003 (ip), vehicle: saline with Tween-80

Structure (SMILES): CN=C(NC)N(C)/N=C/C(C)=N/N(C)C(=NC)NC
- T/C (dose: 15.0 mg/kg/injection, schedule: Q01DX Z (ip), vehicle: methylcellulose (MC)): 95 % of control
- T/C (dose: 30.0 mg/kg/injection, schedule: Q01DX Z (ip), vehicle: methylcellulose (MC)): 101 % of control
- T/C (dose: 60.0 mg/kg/injection, schedule: Q01DX Z (ip), vehicle: methylcellulose (MC)): 101 % of control
- T/C (dose: 60.0 mg/kg/injection, schedule: Q01DX Z (oral), vehicle: methylcellulose (MC)): 104 % of control
- T/C (dose: 120.0 mg/kg/injection, schedule: Q01DX Z (oral), vehicle: methylcellulose (MC)): 93 % of control
- T/C (dose: 240.0 mg/kg/injection, schedule: Q01DX Z (oral), vehicle: methylcellulose (MC)): 91 % of control
- T/C (dose: 480.0 mg/kg/injection, schedule: Q01DX Z (oral), vehicle: methylcellulose (MC)): 110 % of control
- T/C (dose: 720.0 mg/kg/injection, schedule: Q01DX Z (oral), vehicle: methylcellulose (MC)): 108 % of control

Structure (SMILES): Nc1ccc2c(c1)-c1ccc(F)cc1C2=O
- T/C [1]: 91 % of control
- T/C [2]: 91 % of control
- T/C [3]: 89 % of control

Structure (SMILES): CCOC(=O)N/N=C/c1cccc([N+](=O)[O-])c1
- T/C (dose: 75.0 mg/kg/injection, schedule: Q01DX001 (ip), vehicle: saline): 104 % of control
- T/C (dose: 150.0 mg/kg/injection, schedule: Q01DX001 (ip), vehicle: saline): 100 % of control
- T/C (dose: 300.0 mg/kg/injection, schedule: Q01DX001 (ip), vehicle: saline): 101 % of control

Structure (SMILES): CC(C)Cn1cnc2c(=S)nc(N)[nH]c21
- T/C (dose: 6.0 mg/kg/injection, schedule: Q01DX015 (ip), vehicle: other): 107 % of control
- T/C (dose: 9.0 mg/kg/injection, schedule: Q01DX015 (ip), vehicle: carboxymethylcellulose (CMC)): 103 % of control
- T/C (dose: 9.0 mg/kg/injection, schedule: Q01DX015 (ip), vehicle: other): 111 % of control
- T/C (dose: 13.0 mg/kg/injection, schedule: Q01DX015 (ip), vehicle: carboxymethylcellulose (CMC)): 104 % of control
- T/C (dose: 20.0 mg/kg/injection, schedule: Q01DX015 (ip), vehicle: carboxymethylcellulose (CMC)): 109 % of control
- T/C (dose: 21.0 mg/kg/injection, schedule: Q01DX015 (ip), vehicle: other): 150 % of control
- T/C (dose: 22.0 mg/kg/injection, schedule: Q01DX001 (ip), vehicle: carboxymethylcellulose (CMC)): 114 % of control
- T/C (dose: 44.0 mg/kg/injection, schedule: Q01DX015 (ip), vehicle: carboxymethylcellulose (CMC)): 109 % of control
- T/C (dose: 60.0 mg/kg/injection, schedule: Q01DX015 (ip), vehicle: other): 124 % of control
- T/C (dose: 66.0 mg/kg/injection, schedule: Q01DX015 (ip), vehicle: carboxymethylcellulose (CMC)): 98 % of control
- T/C [1]: 155 % of control
- T/C (dose: 100.0 mg/kg/injection, schedule: Q01DX015 (ip), vehicle: carboxymethylcellulose (CMC)): 98 % of control
- T/C (dose: 100.0 mg/kg/injection, schedule: Q01DX015 (ip), vehicle: other): 121 % of control
- T/C [2]: 153 % of control and 161 % of control
- T/C [3]: 112 % of control

Structure (SMILES): Cc1cc(C(=O)/C=C(\C(=O)c2ccccc2)c2ccccc2)ccc1Cl
- T/C (dose: 12.5 mg/kg/injection, schedule: Q04DX002 (ip), vehicle: Klucel (hydroxypropylcellulose) (HPC)): 98 % of control
- T/C (dose: 25.0 mg/kg/injection, schedule: Q04DX002 (ip), vehicle: Klucel (hydroxypropylcellulose) (HPC)): 119 % of control
- T/C (dose: 50.0 mg/kg/injection, schedule: Q04DX002 (ip), vehicle: Klucel (hydroxypropylcellulose) (HPC)): 94 % of control
- T/C (dose: 100.0 mg/kg/injection, schedule: Q04DX002 (ip), vehicle: Klucel (hydroxypropylcellulose) (HPC)): 86 % of control

Structure (SMILES): O=C(/C(=N/OCc1ccccc1)c1ccccc1)c1ccccc1
- T/C [4]: 102 % of control
- T/C [5]: 102 % of control
- T/C [6]: 98 % of control

Structure (SMILES): CC(=O)COc1ccccc1NC(C)=O
- T/C [7]: 101 % of control
- T/C [8]: 106 % of control
- T/C [9]: 109 % of control

Structure (SMILES): COc1ccc(C(O)(c2ccccc2)C(OC(=O)CCl)c2ccccc2)cc1 (stereo unspecified)
- T/C [8]: 90 % of control

Structure (SMILES): CCOc1ccccc1/C=N/Nc1c2ccccc2nc2ccccc12
- T/C [4]: 90 % of control
- T/C [5]: 97 % of control
- T/C [6]: 92 % of control

Structure (SMILES): FC(F)(F)c1ccc(C2=Nc3cccc4cccc(c34)N2)cc1
- T/C (dose: 15.0 mg/kg/injection, schedule: Q01DX Z (ip), vehicle: saline): 105 % of control
- T/C (dose: 30.0 mg/kg/injection, schedule: Q01DX Z (ip), vehicle: saline): 112 % of control
- T/C (dose: 60.0 mg/kg/injection, schedule: Q01DX Z (ip), vehicle: saline): 110 % of control
- T/C (dose: 120.0 mg/kg/injection, schedule: Q01DX Z (ip), vehicle: saline): 98 % of control
- T/C (dose: 120.0 mg/kg/injection, schedule: Q01DX Z (oral), vehicle: saline): 105 % of control
- T/C (dose: 240.0 mg/kg/injection, schedule: Q01DX Z (ip), vehicle: saline): 97 % of control
- T/C (dose: 240.0 mg/kg/injection, schedule: Q01DX Z (oral), vehicle: saline): 118 % of control
- T/C (dose: 480.0 mg/kg/injection, schedule: Q01DX Z (ip), vehicle: saline): 86 % of control
- T/C (dose: 480.0 mg/kg/injection, schedule: Q01DX Z (oral), vehicle: saline): 106 % of control
- T/C (dose: 960.0 mg/kg/injection, schedule: Q01DX Z (oral), vehicle: saline): 91 % of control

Structure (SMILES): Cc1ccc(NC(=O)c2ccccc2C(=O)O)cc1Cl
- T/C [10]: 93 % of control
- T/C (dose: 100.0 mg/kg/injection, schedule: Q04DX003 (ip), vehicle: Klucel (hydroxypropylcellulose) (HPC)): 96 % of control
- T/C [11]: 98 % of control
- T/C (dose: 200.0 mg/kg/injection, schedule: Q04DX003 (ip), vehicle: Klucel (hydroxypropylcellulose) (HPC)): 93 % of control
- T/C [12]: 95 % of control
- T/C (dose: 400.0 mg/kg/injection, schedule: Q04DX003 (ip), vehicle: Klucel (hydroxypropylcellulose) (HPC)): 96 % of control

Structure (SMILES): CCCCCCCCCCCNC=O
- T/C [4]: 103 % of control
- T/C [5]: 101 % of control
- T/C [6]: 101 % of control

Structure (SMILES): CC(=O)Nc1ccc(Cc2ccc(Cl)cc2)cc1
- T/C [4]: 95 % of control
- T/C [5]: 98 % of control

Structure (SMILES): CCN(CC)c1cc2c(cc1Br)-c1ccccc1C2=O
- T/C [13]: 101 % of control
- T/C [14]: 104 % of control
- T/C [15]: 106 % of control

Structure (SMILES): NCCCC1C2CCC(C2)C1CN (stereo unspecified)
- T/C (dose: 100.0 mg/kg/injection, schedule: Q04DX002 (ip), vehicle: alcohol): 98 % of control

Structure (SMILES): CN(CCN(N=O)C(N)=O)[N+](=O)[O-]
- T/C (dose: 100.0 mg/kg/injection, schedule: Q04DX002 (ip), vehicle: other): 98 % of control
- T/C (dose: 200.0 mg/kg/injection, schedule: Q04DX002 (ip), vehicle: other): 94 % of control
- T/C (dose: 400.0 mg/kg/injection, schedule: Q04DX002 (ip), vehicle: other): 109 % of control

Structure (SMILES): CC(=O)SCC(C)CCl (stereo unspecified)
- T/C (dose: 100.0 mg/kg/injection, schedule: Q04DX003 (ip), vehicle: saline): 102 % of control
- T/C (dose: 200.0 mg/kg/injection, schedule: Q04DX003 (ip), vehicle: saline): 107 % of control
- T/C (dose: 400.0 mg/kg/injection, schedule: Q04DX003 (ip), vehicle: saline): 104 % of control

Structure (SMILES): Nc1nc(N)nc(CCCCc2nc(N)nc(N)n2)n1
- T/C [2]: 90 % of control

Structure (SMILES): C=CCc1ccc(OC(=O)Nc2cc(Cl)ccc2C)c(OC)c1
- T/C (dose: 100.0 mg/kg/injection, schedule: Q01DX001 (ip), vehicle: saline with Tween-80): 93 % of control
- T/C [7]: 106 % of control and 87 % of control
- T/C (dose: 100.0 mg/kg/injection, schedule: Q04DX002 (ip), vehicle: saline with Tween-80): 101 % of control and 92 % of control
- T/C [13]: 103 % of control
- T/C (dose: 200.0 mg/kg/injection, schedule: Q01DX001 (ip), vehicle: saline with Tween-80): 97 % of control
- T/C [8]: 101 % of control and 87 % of control
- T/C (dose: 200.0 mg/kg/injection, schedule: Q04DX002 (ip), vehicle: saline with Tween-80): 95 % of control and 97 % of control
- T/C [14]: 101 % of control
- T/C (dose: 400.0 mg/kg/injection, schedule: Q01DX001 (ip), vehicle: saline with Tween-80): 92 % of control
- T/C [9]: 101 % of control and 102 % of control
- T/C (dose: 400.0 mg/kg/injection, schedule: Q04DX002 (ip), vehicle: saline with Tween-80): 95 % of control and 98 % of control
- T/C [15]: 101 % of control

Structure (SMILES): CCN(CC)c1ccc(NC(=O)Nc2ccccc2C)cc1
- T/C [7]: 93 % of control
- T/C [13]: 100 % of control
- T/C [8]: 90 % of control
- T/C [14]: 94 % of control
- T/C [9]: 94 % of control
- T/C [15]: 94 % of control

Structure (SMILES): Clc1ccccc1C=Nc1cccc2ccccc12
- T/C [10]: 121 % of control
- T/C [11]: 104 % of control
- T/C [12]: 107 % of control
